44 molecules from ChEMBL document CHEMBL3988442, “University of Dundee, Small-Polar-MMV Screening Library” (2021) can be followed below.

Assay [1] has as its target AMP-activated protein kinase, AMPK. Description: AMP-dependent Kinase enzyme assay. An in vitro enzyme assay that detects ADP turnover that is directly proportional to AMPK activity. This uses naive AMPK that is activated during the assay with MK-8722. The format is functional, Homo sapiens.
For another assay, the system named is Leishmania donovani. Put plainly: Leishmania intramacrophage assay. It counts as functional, organism-based. The following applies: for IC50: Leishmania donovani.
The test system of the next assay is Trypanosoma brucei. Description: Trypanosoma brucei 72 hour study. The following applies: for IC50: Trypanosoma brucei, 72 h. It counts as functional, organism-based.
Assay [2] is described as follows: In vitro enzyme assay to detect hydrolysis of chlorophenol red-beta-D-[…] directly proportional to the number of Toxoplasma stably expressing beta-galactosidase. It counts as functional, organism-based, Toxoplasma gondii. The following applies: for IC50: Toxoplasma gondii.
In assay [3] the test system is Mycobacterium tuberculosis. Put plainly: Cornell M. t heat shock assay. It counts as functional, organism-based. The note with it: for IC50: Mycobacterium tuberculosis.
The nature of assay [4]: microbe, parasite or virus in culture. The note with it: Mycobacterium tuberculosis, 96 h, read-out: pIC50 (converted).
The nature of assay [5]: microbe, parasite or virus in culture. The following applies: Mycobacterium tuberculosis, 72 h, read-out: pIC50 (converted).
Assay [6] concerns the target T1, Histidine--tRNA ligase (Trypanosoma cruzi (strain CL Brener), UniProt Q4DA54).
T1 sequence (Q4DA54 whole entry): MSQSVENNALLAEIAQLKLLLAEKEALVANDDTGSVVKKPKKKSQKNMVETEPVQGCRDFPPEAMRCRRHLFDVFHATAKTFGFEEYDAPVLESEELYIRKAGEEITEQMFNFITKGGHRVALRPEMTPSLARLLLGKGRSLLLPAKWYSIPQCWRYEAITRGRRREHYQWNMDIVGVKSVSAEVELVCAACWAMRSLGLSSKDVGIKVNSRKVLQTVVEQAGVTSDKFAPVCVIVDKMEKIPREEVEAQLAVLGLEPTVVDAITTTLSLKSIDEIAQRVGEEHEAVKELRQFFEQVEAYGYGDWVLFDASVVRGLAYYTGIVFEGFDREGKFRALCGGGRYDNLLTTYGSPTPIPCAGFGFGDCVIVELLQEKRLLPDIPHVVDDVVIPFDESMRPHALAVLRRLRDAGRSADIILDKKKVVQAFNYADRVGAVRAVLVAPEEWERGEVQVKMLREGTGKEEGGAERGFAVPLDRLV
Put plainly: Trypanosoma cruzi histidyl tRNA synthetase (Tc-HisRS). The format is functional.

The test system of another assay is Wolbachia pipientis. Put plainly: Anti-Wolbachia Cell-Based Screen. The format is functional.
For the next assay, the target named is ClpP1P2 (Mycobacterium tuberculosis (strain ATCC 25618 / H37Rv), UniProt P9WPC3+P9WPC5). Put plainly: in vitro assay to detect presence of AMC directly proportional to the activity of ClpP1P2. GHDDI collaboration. It counts as functional.
Assay [7] concerns the target T2, Coenzyme A biosynthesis bifunctional protein CoaBC (Mycobacterium tuberculosis (strain ATCC 25618 / H37Rv), UniProt P9WNZ1).
T2 sequence (P9WNZ1 whole entry): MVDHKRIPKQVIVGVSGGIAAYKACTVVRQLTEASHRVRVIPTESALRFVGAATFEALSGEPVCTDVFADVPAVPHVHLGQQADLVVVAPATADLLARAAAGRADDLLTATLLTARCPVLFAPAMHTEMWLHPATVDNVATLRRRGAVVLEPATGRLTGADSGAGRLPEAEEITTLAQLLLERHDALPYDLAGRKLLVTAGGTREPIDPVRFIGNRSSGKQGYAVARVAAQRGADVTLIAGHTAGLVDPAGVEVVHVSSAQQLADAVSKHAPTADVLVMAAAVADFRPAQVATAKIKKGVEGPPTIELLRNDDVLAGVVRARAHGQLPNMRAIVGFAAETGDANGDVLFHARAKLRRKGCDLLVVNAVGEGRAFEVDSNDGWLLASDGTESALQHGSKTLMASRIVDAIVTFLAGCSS
Description: Biomol Green assay for MtCoaBC inhibitor, OD650 read. The format is functional.

Assay [8] addresses T3, Histidine--tRNA ligase (Leishmania infantum, UniProt A4I591).
T3 sequence (A4I591 whole entry): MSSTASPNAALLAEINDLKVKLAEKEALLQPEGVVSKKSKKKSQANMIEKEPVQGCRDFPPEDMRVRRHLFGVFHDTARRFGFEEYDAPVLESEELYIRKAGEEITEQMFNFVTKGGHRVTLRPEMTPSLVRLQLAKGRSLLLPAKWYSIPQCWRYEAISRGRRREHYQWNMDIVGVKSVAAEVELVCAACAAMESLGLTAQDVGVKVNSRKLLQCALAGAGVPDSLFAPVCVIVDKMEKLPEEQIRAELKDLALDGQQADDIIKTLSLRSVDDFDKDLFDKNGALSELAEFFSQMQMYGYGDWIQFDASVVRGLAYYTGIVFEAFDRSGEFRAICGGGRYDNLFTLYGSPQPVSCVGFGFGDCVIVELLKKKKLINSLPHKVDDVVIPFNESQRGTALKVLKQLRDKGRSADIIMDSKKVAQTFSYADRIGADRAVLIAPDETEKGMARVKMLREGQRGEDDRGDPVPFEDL
Put plainly: Leishmania infantum Histidine tRNA synthetase (LdHisRS). The format is functional.

A further assay concerns Plasmodium falciparum. Put plainly: Calibr Malaria Delayed Death Assay SOP. It counts as functional, organism-based. The note with it: for IC50: Plasmodium falciparum.

“And” between values parts separate entries of the source, which are not always exact repeats. Identical values can stand only once.

As to `Cc1ccc(NC(=O)c2cc(S(=O)(=O)N3CCCCC3)c[nH]2)cc1F`, the negative-log IC50 (pIC50) (commonly the negative decadic logarithm of the IC50, by convention in mol/L) in [1] is below 4.
`CN(C)c1nc2sc(C(=O)N3CCN(C(=O)OC(C)(C)C)CC3)cc2s1`: the negative logarithm of the IC50 (pIC50) in [1] was below 4.
As to `CCCc1cc(=O)[nH]c(-n2nc(C3CC3)cc2N)n1`, the pIC50 with Leishmania donovani is 4.51; in the assay with Trypanosoma brucei it was 5.268 and 5.368; in assay [2] it was 5.649. The IC50 in the assay with Leishmania donovani was 39.6 µM; in the assay on Trypanosoma brucei, 5.23 µM; in assay [2], 1.95 µM; in assay [3] it was 6.14 µM; in assay [4], 23.8 µM; in assay [5] it was 16.1 µM.
Take `CC(C)c1cc(=O)[nH]c(-n2nc(C3CC3)cc2N)n1`: the negative-log IC50 (pIC50) was 4.627 in the assay on Leishmania donovani; 5.692 and 5.673 in the assay on Trypanosoma brucei; 6.102 and 5.757 in [2]. Moreover, the IC50 in the assay with Leishmania donovani was 40.3 µM; in the assay with Trypanosoma brucei, 2.09 µM; in assay [3] it was 4.63 µM; in assay [4], 11.5 µM; in assay [5], 12.5 µM.
In turn, `c1cncc(-c2ccc3c(c2)C2(CCNCC2)CC3)c1` came in with a pIC50 in assay [1] below 4.
Turning to `c1cc(-c2ccc3c(c2)C2(CCNCC2)CC3)ccn1`, the pIC50 in assay [1] is recorded as below 4.
Still for that read-out and setting: in the case of `CCn1nc(C)c2ccn(CC(=O)NC3CCCC3)c(=O)c21` it was below 4; in that of `O=C(NCC1CC1)C1CN(C(=O)c2cccc(Cl)c2)CC12CCOCC2` (stereo not drawn), below 4; in that of `CO[C@@H]1CC[C@H]2[C@H]1OCCN2C(=O)c1ccc(C)o1`, below 4.
In assay [1], `Cc1ccsc1C(=O)N1CC(C(=O)NCC2CC2)C2(CCOCC2)C1` (stereo not drawn) yielded a pIC50 below 4.
For the molecule `Cc1ccsc1C(=O)N1CC(C(=O)N2CCOCC2)C2(CCOCC2)C1` (stereo not drawn), in assay [1], the negative-log IC50 (pIC50) is reported as below 4.
With `CCn1ncc(-c2cc(C(F)(F)F)nc(N3CCC(N)CC3)n2)c1C`, the IC50 is 11.9 µM in the assay on Leishmania donovani; 5.74 µM with Trypanosoma brucei; above 100 µM against Histidine--tRNA ligase [6]; above 50.1 µM in assay [4]; above 50.1 µM in [5]. Also, the negative-log IC50 (pIC50) is 5.225 and 5.224 in the assay with Trypanosoma brucei; 5.222 and 5.563 in assay [2].
For `CCNC(=O)c1nnc2ccc(N3CCOCC3)cc2n1`, in [1], the negative logarithm of the IC50 (pIC50) is below 4.
The same measure, in the same setting: the same measure for `CC(C)c1cc(C(=O)NCCc2nc(-c3cccnc3)n[nH]2)[nH]n1`: 4.471 and 4.569 and 4.528 and 4.581; for `Cc1cc(-c2cnc(NC3CCCC3)nc2-c2ccco2)on1`: 4.667 and < 4.31.
On the same count and under the same terms, in the case of `Cc1cc(-c2cnc(NC3CC3)nc2-c2ccco2)on1` it was < 4 and 4.22; in that of `Cc1cc(-c2cnc(NC3CC3)nc2-c2ccoc2C)on1`, below 4; in that of `Cc1cc(-c2cnc(NC3CC3)nc2-c2ccoc2)on1`, below 4.
The same measure, in the same setting: the same measure for `Cc1occc1-c1nc(NC2CCCC2)ncc1-c1ccccn1`: below 4; for `Cc1cc(-c2cnc(NC3CCCC3)nc2-c2ccoc2)on1`: below 4.
On to `CCn1cc(NC(=O)NCCN2CCCCCC2=O)cn1`, for which the pIC50 in [1] is given as below 4.
The same measure, in the same setting: the same measure for `CC(C)(C)NC(=O)CNc1ncccn1`: below 4; for `CCCS(=O)(=O)N1CCN(CCCO)CC1`: below 4.
Still for that read-out and setting: the same measure for `CC(C)COc1cncc(N2CCCN(c3ncccn3)CC2)n1`: below 4; for `O=C1CN(C(=O)c2cc3ccc(Br)cc3[nH]2)CCN1`: below 4.
Regarding `COc1c(C)cnc(CN(C)C2CCCCC2)c1C`, the pIC50 in the assay on Leishmania donovani is 4.733; with Trypanosoma brucei, 5.179 and 5.161; in assay [2] it was 5.219; in the assay with Wolbachia pipientis it was 5.441. For the same molecule, the IC50 in the assay on Leishmania donovani was 13.3 µM; with Trypanosoma brucei, 6.48 µM; in [2], 4.88 µM; in the assay on Wolbachia pipientis (Wolbachia pipientis), 6.39 µM.
The molecule `CN(C)C(=O)Cc1nc(CN2CCCCC2Cn2cccn2)cs1` (stereo not drawn) returned a pIC50 in assay [1] below 4.
Take `CCS(=O)(=O)CC(=O)NC(c1ccc(F)cc1)C1CCCC1` (stereo not drawn): the pIC50 in assay [1] is given as below 4.
Still for that read-out and setting: the same measure for `CCc1csc(C2CCCN(C(=O)c3cnn(CC)c3)C2)n1` (stereo not drawn): below 4; for `CC(C)NC(=O)N1CC[C@@H]2CN(Cc3ccccc3)S(=O)(=O)[C@@H]2CC1`: below 4; for `C[C@H]1C[C@@H]2CCN(Cc3ccccn3)C[C@H]2O1`: below 4.
Still for that read-out and setting: the same measure for `COc1cc(-c2cccc3c2OC(CN)C3)ccc1O` (stereo not drawn): 4.656 and 4.577; for `Cn1cnc(S(=O)(=O)N2C[C@@H]3CC[C@H](C2)N(Cc2ccccn2)C3)c1`: below 4; for `CN(C)S(=O)(=O)NC1CCCc2c1cnn2-c1ccc(C(C)(C)C)cc1` (stereo not drawn): below 4.
`CN(C)S(=O)(=O)c1ccc(-c2nc(C#N)c(NC(C)(C)C)o2)o1.Cl`: the IC50 is above 50.1 µM in the assay with Leishmania donovani; 18.4 µM in the assay on Trypanosoma brucei; 7.65 µM in [2]; 11.3 µM in assay [3]; above 100 µM on ClpP1P2. Besides, the pIC50 in the assay with Trypanosoma brucei was 4.737 and 4.726.
In the case of `Cc1cc(C)n(CCCn2cncc2-c2ccc3c(c2)CC(C)N3C)n1.Cl` (stereo not drawn), the IC50 in [7] was above 30.2 µM; with Trypanosoma brucei, 28.9 µM; against Histidine--tRNA ligase [8] it was 23.7 µM and 22.2 µM; with Plasmodium falciparum it was 1.59 µM; in assay [3], 76.7 µM; at ClpP1P2, above 100 µM. For the same molecule, the negative-log IC50 (pIC50) in the assay on Trypanosoma brucei was 4.689 and 4.712; in the assay on Plasmodium falciparum it was 5.88; in assay [3], 4.037.
`Cl.NC1CCc2nc(-c3cccnc3)nc(Nc3ccc(F)cc3)c2C1` (stereo not drawn): the negative-log IC50 (pIC50) in the assay on Leishmania donovani was 5.001; in the assay with Trypanosoma brucei, 5.072 and 4.886; in the assay with Plasmodium falciparum it was 6.698; in assay [3], 4.893. Further, the IC50 is 8.3 µM in the assay on Leishmania donovani; 7.84 µM with Trypanosoma brucei; 0.204 µM in the assay on Plasmodium falciparum; 6.43 µM in [3]; 48.6 µM in assay [4]; 22.2 µM in assay [5].
On to `Cl.NC1CCc2nc(-c3ccncc3)nc(Nc3cccc(F)c3)c2C1` (stereo not drawn), for which the pIC50 is 5.181 in the assay on Leishmania donovani; 5.636 and 5.623 with Trypanosoma brucei; below 4 in assay [3]. Also, the IC50 was 5.99 µM with Leishmania donovani; 2.41 µM with Trypanosoma brucei; 3.66 µM in assay [2]; 46.3 µM and 51.2 µM on Histidine--tRNA ligase [8]; 50.4 µM in [3].
As for `Cl.Cl.c1ccc(OC[C@@H]2CCC[C@@]23CNCCO3)nc1`, in assay [1], the negative-log IC50 (pIC50) is on record as below 4.
On the same count and under the same terms, the same measure for `Cl.Cl.c1cc(COC[C@@H]2CCC[C@@]23CNCCO3)ccn1`: below 4; for `Cl.Cl.c1cncc(OC[C@@H]2CCC[C@@]23CNCCO3)c1`: below 4; for `Cc1ccc2c(n1)N(C)CCN(C(=O)NC1CC1)C2.O=C(O)C(F)(F)F`: below 4.
On to `CN(C)S(=O)(=O)N1C[C@H](Oc2cccnc2)[C@H]2OCCC[C@H]21.O=C(O)C(F)(F)F`, for which, in assay [1], the pIC50 is reported as below 4.
`FC1(F)CCN(Cc2cccnc2)CC12CCN(c1ccccc1)C2.O=C(O)C(F)(F)F.O=C(O)C(F)(F)F.O=C(O)C(F)(F)F` (stereo not drawn): the IC50 is above 30.2 µM in assay [7]; 6.05 µM with Trypanosoma brucei; 13.6 µM and 18.6 µM against Histidine--tRNA ligase [8]; 1.16 µM with Plasmodium falciparum; 12.5 µM in assay [4]; 43.8 µM in assay [5]. Also, the pIC50 in the assay on Trypanosoma brucei was 5.234 and 5.17; with Plasmodium falciparum, 5.955.
